Assay results: patent US5405598A, “Sensitizing agents for use in boron neutron capture therapy” (priority 1992, dated 1995)

What was measured:
HIV-1 (strain LAV) = test: Anti-HIV-1 activity in human PBM cells; format: cell-based; conditions: On day 6, in human PBM cells, without neutrons
Text: Thus, these compounds have antiviral activity in the absence of neutrons.
(§1) Biological methods are described in Schinazi et al, Antimicrob. Agents Chemother., vol. 34, pp. 1061-1067, (1990).

CEM = test: Cytotoxicity in CEM cells; format: cell-based; conditions: On day 6; read-out: CEM IC50 (cytotoxicity)
Text: as §1

Vero = test: Cytotoxicity in Vero cells; format: cell-based; conditions: On day 3; read-out: Vero IC50 (cytotoxicity)
Text: as §1

PBM = test: Cytotoxicity in PBM cells; format: cell-based, human; conditions: On day 6; read-out: PBM IC50 (cytotoxicity)
Text: as §1

[1] = test system: human immunodeficiency viruses (HIV); conditions: racemic BCH-189; FTC; cited from earlier work
Hepatitis B virus (HBV) = conditions: racemic BCH-189; FTC; cited from earlier work
malignant cells = conditions: under both euoxic and hypoxic conditions; cited from earlier work
[2] = mice, radiolabeled; cited from earlier work
[3] = mice; cited from earlier work
hamster V-79 cells = conditions: when irradiated with low energy neutrons; cited from earlier work

## 5'-O-Butyryl-5-carboranyl-3'-thia-2',3'-dideoxyuridine
HIV-1 (strain LAV)
  EC50: 6.4 µM

## 5-Carboranyl-2',3'-dideoxy-3'-thiauridine
CEM
  CC50: 37.9 µM
Vero
  CC50: 34.2 µM
PBM
  CC50: > 100 µM
HIV-1 (strain LAV)
  EC50: 12.1 µM

## Nc1ccn([C@H]2CS[C@@H](CO)O2)c(=O)n1 (racemic) [BCH-189, 2', 3'-dideoxy-3'-thiacytidine]
[1]
  viability as anti-HIV agent: demonstrated
Hepatitis B virus (HBV)
  viability as anti-HBV agent: demonstrated

## Cc1cc(OP(=O)(O)O)c2cc(I)ccc2c1OP(=O)(O)O [6-I-MNDP, 6-iodo-2-methyl-1,4-naphthoquinol bis(diammonium phosphate)]
Malignant cells
  uptake into malignant cells relative to normal cells: 15-20 fold
[2]
  uptake in tumor tissues: high uptake
  uptake into critical radiosensitive tissues, such as bone-marrow, colon, and lung: low uptake
[3]
  metabolic stability of the halogen-carbon bond: metabolically stable

## O=c1[nH]c(=O)n([C@H]2C[C@H](O)[C@@H](CO)O2)cc1B(O)O [DBDU, 5-dihydroxyboryl-2'-deoxyuridine]
Hamster V-79 cells
  destruction of hamster V-79 cells: destroy hamster V-79 cells

## Nc1nc(=O)n([C@H]2CS[C@@H](CO)O2)cc1F [FTC, 2', 3'-dideoxy-5-fluoro-3'-thiacytidine]
[1]
  viability as anti-HIV agent: demonstrated
Hepatitis B virus (HBV)
  viability as anti-HBV agent: demonstrated
